Results on one compound are retold here after paper PMC8772930, “Experimental and Molecular Docking Studies of Cyclic Diphenyl Phosphonates as DNA Gyrase Inhibitors for Fluoroquinolone-Resistant Pathogens” (Antibiotics, 2022).

Structures are written as SMILES.

The test concerns the target T1, DNA gyrase (Escherichia coli, UniProt P0AES6).
T1 construct: gene gyrB; with DNA gyrase subunit A (GyrA)
Kind of test: DNA supercoiling inhibition assay (Inspiralis E. coli gyrase microplate kit, agarose gel). The class given is biochemical.

On to `NN1C=CCCC1P(=O)(Oc1ccccc1)Oc1ccccc1` (stereo not shown) [2a, cyclic diphenylphosphonate 2a], for which the midpoint of inhibition, the IC50, lay at 12 µM. This lies in the double-digit micromolar range.

In general, IC50 refers to the concentration at which inhibition is half-maximal.
